{"source": "patent US7964647B2", "about": "(Mutual Pharmaceutical Company, Inc., priority 2007, dated 2011)", "key": {"[1]": {"assay": "Pharmacokinetic study of standard-dose acute gout regimen 4.8 mg over 6 hours (Example 6)", "conditions": "for Cmax / Tmax / half-life: human, in vivo, 4.8 mg", "procedure": "This study was a single center, randomized, double-blind, double-dummy pharmacokinetic and exploratory ECG safety study.\nThose randomized to moxifloxacin received 1×400 mg tablet."}, "clinical": {"assay": "clinical", "conditions": "human, plasma, oral, 1.8 mg, N = 13; for Cmax: low-dose regimen 1.8 mg (2 x 0.6 mg, then 0.6 mg 1 hour later), fasting healthy adults; for Tmax / half-life: low-dose regimen 1.8 mg, healthy adults; for Tmax: time after the initial dose", "protocol": "This study was a single-center, single-period, open-label pharmacokinetic study conducted in healthy subjects under fasting conditions.\nSubjects received 2×0.6 mg tablets initially followed by 1×0.6 mg tablet 1 hour later."}, "[2]": {"conditions": "standard-dose regimen 4.8 mg over 6 hours, healthy adults, N = 15"}, "[3]": {"conditions": "standard-dose regimen 4.8 mg over 6 hours, time after the initial dose, healthy adults, N = 15"}, "[4]": {"conditions": "0.6 mg b.i.d. x 10 days, after last dose (Day 25), healthy adults, N = 13"}, "[5]": {"conditions": "single oral 0.6 mg dose, healthy adults, N = 13"}}, "note": "Like-named read-outs stand apart in the source and are kept apart here."}
{"compound": "COc1cc2c(c(OC)c1OC)-c1ccc(OC)c(=O)cc1[C@@H](NC(C)=O)CC2", "note": "[Colchicine, (−)-N-[(7S,12aS)-1,2,3,10-tetramethoxy-9-oxo-5,6,7,9-tetrahydrobenzo[a]heptalen-7-yl]-acetamide]", "values": [{"measurement": "Cmax", "setting": "[1]; MEAN, standard-dose regimen 4.8 mg over 6 hours, healthy adults, N = 15", "result": 6.8, "unit": "ng/mL"}, {"measurement": "Cmax", "setting": "[1]; MEDIAN, standard-dose regimen 4.8 mg over 6 hours, healthy adults, N = 15", "result": 6.69, "unit": "ng/mL"}, {"measurement": "Tmax", "setting": "[1]; MEAN, standard-dose regimen 4.8 mg over 6 hours, time after the initial dose, healthy adults, N = 15", "result": "~4.5", "unit": "h"}, {"measurement": "Tmax", "setting": "[1]; MEDIAN, standard-dose regimen 4.8 mg over 6 hours, time after the initial dose, healthy adults, N = 15", "result": 3.12, "unit": "h"}, {"measurement": "half-life", "setting": "[1]; t1/2, MEAN, standard-dose regimen 4.8 mg over 6 hours, healthy adults, N = 15", "result": 31.4, "unit": "h"}, {"measurement": "half-life", "setting": "[1]; t1/2, MEDIAN, standard-dose regimen 4.8 mg over 6 hours, healthy adults, N = 15", "result": 32.8, "unit": "h"}, {"measurement": "CL/F, MAX", "setting": "[1]; [2]", "result": 78287.41, "unit": "mL/h"}, {"measurement": "CL/F, MEAN", "setting": "[1]; [2]", "result": 43168.87, "unit": "mL/h"}, {"measurement": "CL/F, MEDIAN", "setting": "[1]; [2]", "result": 37954.71, "unit": "mL/h"}, {"measurement": "CL/F, MIN", "setting": "[1]; [2]", "result": 31386.01, "unit": "mL/h"}, {"measurement": "Cmax, MAX", "setting": "[1]; [2]", "result": 8.60, "unit": "ng/mL"}, {"measurement": "Cmax, MEAN", "setting": "[1]; [2]", "result": 6.84, "unit": "ng/mL"}, {"measurement": "Cmax, MIN", "setting": "[1]; [2]", "result": 4.95, "unit": "ng/mL"}, {"measurement": "Kel, MAX", "setting": "[1]; [2]", "result": 0.0461, "unit": "h⁻¹"}, {"measurement": "Kel, MEAN", "setting": "[1]; [2]", "result": 0.0242, "unit": "h⁻¹"}, {"measurement": "Kel, MEDIAN", "setting": "[1]; [2]", "result": 0.0212, "unit": "h⁻¹"}, {"measurement": "Kel, MIN", "setting": "[1]; [2]", "result": 0.0147, "unit": "h⁻¹"}, {"measurement": "Total AUC0-t, MAX", "setting": "[1]; [2]", "result": 138.24, "unit": "ng·h/mL"}, {"measurement": "Total AUC0-t, MEAN", "setting": "[1]; [2]", "result": 104.95, "unit": "ng·h/mL"}, {"measurement": "Total AUC0-t, MEDIAN", "setting": "[1]; [2]", "result": 113.12, "unit": "ng·h/mL"}, {"measurement": "Total AUC0-t, MIN", "setting": "[1]; [2]", "result": 53.74, "unit": "ng·h/mL"}, {"measurement": "Total AUC∞, MAX", "setting": "[1]; [2]", "result": 152.93, "unit": "ng·h/mL"}, {"measurement": "Total AUC∞, MEAN", "setting": "[1]; [2]", "result": 118.20, "unit": "ng·h/mL"}, {"measurement": "Total AUC∞, MEDIAN", "setting": "[1]; [2]", "result": 126.47, "unit": "ng·h/mL"}, {"measurement": "Total AUC∞, MIN", "setting": "[1]; [2]", "result": 61.31, "unit": "ng·h/mL"}, {"measurement": "Varea/F, MAX", "setting": "[1]; [2]", "result": 2639.21, "unit": "L"}, {"measurement": "Varea/F, MEAN", "setting": "[1]; [2]", "result": 1876.09, "unit": "L"}, {"measurement": "Varea/F, MEDIAN", "setting": "[1]; [2]", "result": 1902.14, "unit": "L"}, {"measurement": "Varea/F, MIN", "setting": "[1]; [2]", "result": 805.92, "unit": "L"}, {"measurement": "t1/2, MAX", "setting": "[1]; [2]", "result": 47.22, "unit": "h"}, {"measurement": "t1/2, MIN", "setting": "[1]; [2]", "result": 15.03, "unit": "h"}, {"measurement": "Tmax, MAX", "setting": "[1]; [3]", "result": 7.50, "unit": "h"}, {"measurement": "Tmax, MEAN", "setting": "[1]; [3]", "result": 4.47, "unit": "h"}, {"measurement": "Subjects with a secondary peak within 6 hours", "setting": "[1]; standard-dose regimen 4.8 mg, 13 of 15 subjects", "result": 87, "unit": "%"}, {"measurement": "AUC0-inf, MAX", "setting": "[4]", "result": 67.94465, "unit": "ng·h/mL"}, {"measurement": "AUC0-inf, MEAN", "setting": "[4]", "result": 54.19877, "unit": "ng·h/mL"}, {"measurement": "AUC0-inf, MEDIAN", "setting": "[4]", "result": 54.11343, "unit": "ng·h/mL"}, {"measurement": "AUC0-inf, MIN", "setting": "[4]", "result": 37.59976, "unit": "ng·h/mL"}, {"measurement": "AUC0-t, MAX", "setting": "[4]", "result": 58.26535, "unit": "ng·h/mL"}, {"measurement": "AUC0-t, MEAN", "setting": "[4]", "result": 43.57696, "unit": "ng·h/mL"}, {"measurement": "AUC0-t, MEDIAN", "setting": "[4]", "result": 41.9251, "unit": "ng·h/mL"}, {"measurement": "AUC0-t, MIN", "setting": "[4]", "result": 29.32878, "unit": "ng·h/mL"}, {"measurement": "AUC0-τ, MAX", "setting": "[4]", "result": 36.08395, "unit": "ng·h/mL"}, {"measurement": "AUC0-τ, MIN", "setting": "[4]", "result": 20.79198, "unit": "ng·h/mL"}, {"measurement": "Cave, MAX", "setting": "[4]", "result": 1.5035, "unit": "ng/mL"}, {"measurement": "Cave, MEAN", "setting": "[4]", "result": 1.21068, "unit": "ng/mL"}, {"measurement": "Cave, MEDIAN", "setting": "[4]", "result": 1.18551, "unit": "ng/mL"}, {"measurement": "Cave, MIN", "setting": "[4]", "result": 0.86633, "unit": "ng/mL"}, {"measurement": "Cmax, MAX", "setting": "[4]", "result": 4.957, "unit": "ng/mL"}, {"measurement": "Cmax, MEAN", "setting": "[4]", "result": 3.55315, "unit": "ng/mL"}, {"measurement": "Cmax, MEDIAN", "setting": "[4]", "result": 3.734, "unit": "ng/mL"}, {"measurement": "Cmax, MIN", "setting": "[4]", "result": 1.977, "unit": "ng/mL"}, {"measurement": "Cmin, MAX", "setting": "[4]", "result": 1.14967, "unit": "ng/mL"}, {"measurement": "Cmin, MEDIAN", "setting": "[4]", "result": 0.9035, "unit": "ng/mL"}, {"measurement": "Cmin, MIN", "setting": "[4]", "result": 0.63623, "unit": "ng/mL"}, {"measurement": "Kel, MAX", "setting": "[4]", "result": 0.03, "unit": "h⁻¹"}, {"measurement": "Kel, MEAN", "setting": "[4]", "result": 0.03, "unit": "h⁻¹"}, {"measurement": "Kel, MEDIAN", "setting": "[4]", "result": 0.03, "unit": "h⁻¹"}, {"measurement": "Kel, MIN", "setting": "[4]", "result": 0.02, "unit": "h⁻¹"}, {"measurement": "T1/2, MAX", "setting": "[4]", "result": 33.65, "unit": "h"}, {"measurement": "T1/2, MEDIAN", "setting": "[4]", "result": 26.51, "unit": "h"}, {"measurement": "T1/2, MIN", "setting": "[4]", "result": 20.82, "unit": "h"}, {"measurement": "Tmax, MAX", "setting": "[4]", "result": 3.00, "unit": "h"}, {"measurement": "Tmax, MEAN", "setting": "[4]", "result": 1.31, "unit": "h"}, {"measurement": "Tmax, MIN", "setting": "[4]", "result": 0.50, "unit": "h"}, {"measurement": "AUC0-inf, MAX", "setting": "[5]", "result": 23.83848, "unit": "ng·h/mL"}, {"measurement": "AUC0-inf, MIN", "setting": "[5]", "result": 7.25266, "unit": "ng·h/mL"}, {"measurement": "AUC0-t, MAX", "setting": "[5]", "result": 18.12865, "unit": "ng·h/mL"}, {"measurement": "AUC0-t, MIN", "setting": "[5]", "result": 4.81288, "unit": "ng·h/mL"}, {"measurement": "Cmax, MAX", "setting": "[5]", "result": 3.977, "unit": "ng/mL"}, {"measurement": "Cmax, MIN", "setting": "[5]", "result": 1.584, "unit": "ng/mL"}, {"measurement": "Kel, MAX", "setting": "[5]", "result": 0.2443, "unit": "h⁻¹"}, {"measurement": "Kel, MEAN", "setting": "[5]", "result": 0.1829, "unit": "h⁻¹"}, {"measurement": "Kel, MEDIAN", "setting": "[5]", "result": 0.1992, "unit": "h⁻¹"}, {"measurement": "Kel, MIN", "setting": "[5]", "result": 0.0359, "unit": "h⁻¹"}, {"measurement": "T1/2, MAX", "setting": "[5]", "result": 19.29, "unit": "h"}, {"measurement": "T1/2, MIN", "setting": "[5]", "result": 2.84, "unit": "h"}, {"measurement": "Tmax, MAX", "setting": "[5]", "result": 3.00, "unit": "h"}, {"measurement": "Cmin prior to the morning dose higher than Cmin prior to the evening dose", "setting": "steady state, Day 23 and Day 24", "result": "approximately 12%"}, {"measurement": "Cmax", "setting": "clinical; MEAN", "result": 6.19, "unit": "ng/mL"}, {"measurement": "Cmax", "setting": "clinical; MEDIAN", "result": 5.68, "unit": "ng/mL"}, {"measurement": "Tmax", "setting": "clinical; MEAN", "result": 1.81, "unit": "h"}, {"measurement": "Tmax", "setting": "clinical; MEDIAN", "result": 2, "unit": "h"}, {"measurement": "half-life", "setting": "clinical; t1/2, MEAN", "result": 23.6, "unit": "h"}, {"measurement": "half-life", "setting": "clinical; t1/2, MEDIAN", "result": 21.6, "unit": "h"}]}
